Experimental data as given in patent US8993765B2, “Tetrahydro-azacarboline MCH-1 antagonists, methods of making, and uses thereof” (Albany Molecular Research, Inc., priority 2010, dated 2015).
pKi: −log10 of the molar value.

What was measured:
human MCH-1 receptor = human MCH-1 receptor (Homo sapiens (Human), UniProt Q99705); assay: Binding Assay for Human Melanin-Concentrating Hormone (MCH-1) Receptor; settings: membranes of CHO-K1 cells expressing human MCH-1 receptor; for pKi: radioligand displacement, Ki by Cheng Prusoff equation, read-out: MCH1 Ki
Sequence of human MCH-1 receptor (Q99705 whole entry): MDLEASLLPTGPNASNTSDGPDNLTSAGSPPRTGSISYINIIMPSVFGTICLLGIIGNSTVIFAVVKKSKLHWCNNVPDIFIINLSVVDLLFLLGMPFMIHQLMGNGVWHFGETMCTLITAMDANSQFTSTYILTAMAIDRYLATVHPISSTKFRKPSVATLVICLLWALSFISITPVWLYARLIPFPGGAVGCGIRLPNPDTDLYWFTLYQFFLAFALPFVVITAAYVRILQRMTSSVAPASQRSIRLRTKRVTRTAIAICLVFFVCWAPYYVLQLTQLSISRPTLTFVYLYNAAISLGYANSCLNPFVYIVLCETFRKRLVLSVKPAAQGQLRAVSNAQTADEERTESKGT
Experimental: Binding Assay for Human Melanin-Concentrating Hormone (MCH-1) Receptor
Evaluation of the affinity of compounds for the human MCH-1 receptor was accomplished using 4-(3,4,5-tritritiumbenzyloxy)-1-(1-(2-(pyrrolidin-1-yl)ethyl)-1H-indazol-5-yl)pyridin-2(1H)-one and membranes prepared from stable CHO-K1 cells expressing the human MCH-1 receptor obtained from Euroscreen (Batch 1138). Cell membrane homogenates (8.92 μg protein) were incubated for 60 min at 25° C. with […] of the [^3H]-labeled compound in the absence or presence of the test compound in 50 mM Tris-HCl buffer, pH 7.4. Nonspecific binding was determined in the presence of 50 μM 1-(5-(4-cyanophenyl)bicyclo[3.1.0]hexan-2-yl)-3-(4-fluoro-3-(trifluoromethyl)phenyl)-1-(3-(4-methylpiperazin-1-yl)propyl)urea. Following incubation, the samples were filtered rapidly under vacuum through Skatron 11731 filters, pre-soaked in 0.5% polyethylenimine, and washed with ice-cold 50 mM Tris-HCl buffer, pH 7.4, (wash setting 9,9,0) using a Skatron cell harvester. The filters were counted for radioactivity in a liquid scintillation counter (Tri-Carb 2100TR, Packard) using a scintillation cocktail (Ultima Gold MV, Perkin Elmer).
The results are expressed as a percent inhibition of the control radioligand specific binding. The IC50 value (concentration causing a half-maximal inhibition of control specific binding) and Hill coefficient (nH) were determined by non-linear regression analysis of the competition curve using Hill equation curve fitting. The inhibition constant (Ki) was calculated from the Cheng Prusoff equation: (Ki=IC50/(1+(L/KD)), where L=concentration of radioligand in the assay, and KD=affinity of the radioligand for the receptor.

| pKi (human MCH-1 receptor) | melting point | inhibition at 1 µM (human MCH-1 receptor; @ 1 uM test compound, read-out: MCH1 percent inhibition of control radioligand specific binding) | Structure (SMILES) |
| --- | --- | --- | --- |
| 7.15 | 206 to 208 °C | – | CC(=O)N1CCc2c(c3ccc(-n4ccc(OCc5ccccc5)cc4=O)nc3n2C)C1 [Example 11, 1-(6-Acetyl-9-methyl-5,7,8,9-tetrahydro-6H-pyrido[3′,4′:4,5]pyrrolo[2,3-b]pyridin-2-yl)-4-(benzyloxy)pyridin-2(1H)-one] |
| 7.68 | 280 °C (dec.) | – | Cl.O=c1cc(OCc2ccccc2)ccn1-c1ccn2c3c(nc2c1)CCNC3 [Example 22, 4-(Benzyloxy)-1-(1,2,3,4-tetrahydropyrido[4′,3′:4,5]imidazo[1,2-a]pyridin-7-yl)pyridin-2(1H)-one hydrochloride] |
| 7.11 | 238 to 242 °C | – | CC(=O)N1CCc2c(c3ccc(-n4ccc(-c5ccc(C(F)(F)F)nc5)cc4=O)nc3n2C)C1 [Example 9, 1-(6-Acetyl-9-methyl-5,7,8,9-tetrahydro-6H-pyrido[3′,4′:4,5]pyrrolo[2,3-b]pyridin-2-yl)-4-(6-(trifluoromethyl)pyridin-3-yl)pyridin-2(1H)-one] |
| – | 245 to 255 °C | 72% | Cl.O=c1cc(OCc2ccc(F)cn2)ccn1-c1ccc2c(c1)nc1n2CCNC1 [Example 19, 4-((5-Fluoropyridin-2-yl)methoxy)-1-(1,2,3,4-tetrahydropyrazino[1,2-a]benzimidazol-8-yl)pyridin-2(1H)-one hydrochloride] |
